This note sets out measurements from publication PMC9200067 (Clinical and Translational Science, 2022).

Common to all, as to experiment: competitive radioligand binding, recombinant cells
What all share (type): cell-based

The target of one test is 5-HT4 (Homo sapiens, UniProt Q13639).
A further test has as its target T1, α1B (Homo sapiens, UniProt P35368).
T1 sequence (P35368 1-520): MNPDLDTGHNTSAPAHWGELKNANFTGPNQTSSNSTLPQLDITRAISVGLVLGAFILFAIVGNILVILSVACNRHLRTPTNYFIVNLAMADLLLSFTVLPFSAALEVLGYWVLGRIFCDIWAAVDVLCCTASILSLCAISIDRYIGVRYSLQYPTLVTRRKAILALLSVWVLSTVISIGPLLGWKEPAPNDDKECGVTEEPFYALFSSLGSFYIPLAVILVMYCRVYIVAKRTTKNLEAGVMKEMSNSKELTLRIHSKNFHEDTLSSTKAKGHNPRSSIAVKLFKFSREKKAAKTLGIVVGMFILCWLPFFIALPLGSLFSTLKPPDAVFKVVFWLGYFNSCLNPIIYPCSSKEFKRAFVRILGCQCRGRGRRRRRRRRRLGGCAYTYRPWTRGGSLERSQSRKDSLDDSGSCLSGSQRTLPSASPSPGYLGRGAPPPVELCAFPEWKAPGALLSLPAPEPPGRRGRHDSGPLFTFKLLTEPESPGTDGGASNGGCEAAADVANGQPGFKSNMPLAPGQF

The target in another test is T2, α1D (Homo sapiens, UniProt P25100).
T2 sequence (P25100 1-572): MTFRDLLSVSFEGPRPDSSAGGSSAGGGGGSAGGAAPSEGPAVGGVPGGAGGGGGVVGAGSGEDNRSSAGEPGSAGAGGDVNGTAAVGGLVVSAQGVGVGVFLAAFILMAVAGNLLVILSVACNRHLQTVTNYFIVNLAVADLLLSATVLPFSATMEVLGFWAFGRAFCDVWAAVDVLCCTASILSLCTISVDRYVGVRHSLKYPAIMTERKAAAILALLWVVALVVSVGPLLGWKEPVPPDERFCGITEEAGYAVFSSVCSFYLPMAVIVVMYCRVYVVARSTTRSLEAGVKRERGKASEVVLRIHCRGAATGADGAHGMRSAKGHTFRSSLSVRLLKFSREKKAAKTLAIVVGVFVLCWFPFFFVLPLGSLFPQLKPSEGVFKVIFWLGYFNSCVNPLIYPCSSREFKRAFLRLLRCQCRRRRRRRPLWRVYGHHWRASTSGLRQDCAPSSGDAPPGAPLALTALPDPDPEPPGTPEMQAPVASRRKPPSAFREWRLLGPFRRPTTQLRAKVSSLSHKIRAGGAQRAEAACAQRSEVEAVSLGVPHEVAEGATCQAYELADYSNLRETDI

The target of a further test is σ1 (Homo sapiens, UniProt Q99720).
Sequence of σ1 (Q99720 whole entry): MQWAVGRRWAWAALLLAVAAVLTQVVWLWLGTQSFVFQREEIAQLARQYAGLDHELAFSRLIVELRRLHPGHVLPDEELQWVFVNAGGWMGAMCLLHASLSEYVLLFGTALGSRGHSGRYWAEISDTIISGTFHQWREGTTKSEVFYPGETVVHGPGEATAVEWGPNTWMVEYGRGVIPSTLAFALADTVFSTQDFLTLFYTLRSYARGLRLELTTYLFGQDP

Sequence of 5-HT4 (Q13639 whole entry): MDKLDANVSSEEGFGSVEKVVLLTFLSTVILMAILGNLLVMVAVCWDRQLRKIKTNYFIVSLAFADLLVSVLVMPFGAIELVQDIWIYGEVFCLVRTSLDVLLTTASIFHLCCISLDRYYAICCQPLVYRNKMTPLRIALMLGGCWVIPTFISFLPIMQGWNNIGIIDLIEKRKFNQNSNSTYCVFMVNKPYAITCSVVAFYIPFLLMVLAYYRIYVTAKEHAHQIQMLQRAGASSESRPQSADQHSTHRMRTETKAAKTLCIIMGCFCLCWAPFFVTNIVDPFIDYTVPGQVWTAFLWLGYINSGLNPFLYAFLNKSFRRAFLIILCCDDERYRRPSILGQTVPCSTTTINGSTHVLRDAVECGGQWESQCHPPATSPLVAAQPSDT

As to `O=c1n(CCCN2CCN(c3cccc(Cl)c3)CC2)nc2ccccn12` [trazodone], the Ki on 5-HT4 came out at 10000 nM; at α1B, 15 nM; at α1D it was 27 nM; at σ1, 3980 nM.
